# In patent US9393226B2, “Use of osthole for treating focal segmental glomerulosclerosis” (National Defense Medical Center, priority 2014, dated 2016):
# Assays:
# Assay type in all cases: in vivo, BALB/c mice
# [1] = system: adriamycin induced FSGS mice; assay: Pathologic evaluation of kidney sections (H&E) in mouse FSGS model; details: osthole 30 mg/kg daily intraperitoneal; 7th and 28th day; FIG. 2
# Method: (§1) Experiments were performed on 8-week-old female BALB/c mice. The mice were separated into 3 groups at 8-weeks old. One of the groups were injected intravenously with normal saline to be used as normal controls, where the pathological control group and the osthole treated group were intravenously injected with a single dose of adriamycin (0.1 mg/10 g body weight) to induce FSGS, wherein the osthole treated group is intraperitoneally injected with osthole at a daily dose of 30 mg/kg body weight starting from 6 hours before FSGS induction by adriamycin. After intravenous injection of adriamycin, osthole was continuously given to the osthole treated group through intraperitoneal injection with a daily dose of 30 mg/kg body weight until they were sacrificed 28 days after FSGS induction. The pathological control group were given vehicle by intraperitoneal injection in the same fashion. Urine samples were collected in metabolic cages on days 3, 7, 14, and 21. Mice were sacrificed at day 7 or 28 post disease induction. Renal cortical tissues, spleen and serum were collected and stored properly for further analysis. […] Renal pathology was examined under optical microscope and renal lesions was scored. or EPHLs and sclerosis, at least 50 glomeruli in sections were examined for each mouse.
# ROS (superoxide anion) = assay: Reactive oxygen species (ROS) determination in mouse FSGS model; details: osthole 30 mg/kg daily intraperitoneal, 28th day
# Method: Experiments were performed on 8-week-old female BALB/c mice. The mice were separated into 3 groups at 8-weeks old. One of the groups were injected intravenously with normal saline to be used as normal controls, where the pathological control group and the osthole treated group were intravenously injected with a single dose of adriamycin (0.1 mg/10 g body weight) to induce FSGS, wherein the osthole treated group is intraperitoneally injected with osthole at a daily dose of 30 mg/kg body weight starting from 6 hours before FSGS induction by adriamycin. After intravenous injection of adriamycin, osthole was continuously given to the osthole treated group through intraperitoneal injection with a daily dose of 30 mg/kg body weight until they were sacrificed 28 days after FSGS induction. The pathological control group were given vehicle by intraperitoneal injection in the same fashion. Urine samples were collected in metabolic cages on days 3, 7, 14, and 21. […] Lucigenin was used to react with the ROS in urine, and detected with Hidex microplate luminometer (Finland), the results were represented as reactive luminescence units (RLU) per 15 min per milligram dry weight (i.e., RLU/15 min/mg dry weight). ROS in kidney tissues were detected with dihydroethidium (DHE), and quantitation was done by determining the ratio of signal positive nucleus/total nucleus in each kidney trans-section.
# NF-κB p65 = NF-κB p65 immunostaining in kidney tissues in mouse FSGS model; details: osthole 30 mg/kg daily intraperitoneal; 28th day; FIG. 8
# Method: as §1, with “analysis. In addition, immunohistochemistry was also performed.” for “analysis.”, “A quantitative image analysis software Pax-it; […], Villa Park, Ill., USA)” for “Renal pathology”, “used to analyze the staining results.” for “examined under optical microscope and renal lesions was scored. or EPHLs and sclerosis, at least 50 glomeruli in sections were examined for each mouse.”
# [2] = system: adriamycin induced FSGS mice; assay: Analysis of urine protein and renal function in mouse FSGS model; details: osthole 30 mg/kg daily intraperitoneal, vs pathological control group
# Method: Experiments were performed on 8-week-old female BALB/c mice. The mice were separated into 3 groups at 8-weeks old. One of the groups were injected intravenously with normal saline to be used as normal controls, where the pathological control group and the osthole treated group were intravenously injected with a single dose of adriamycin (0.1 mg/10 g body weight) to induce FSGS, wherein the osthole treated group is intraperitoneally injected with osthole at a daily dose of 30 mg/kg body weight starting from 6 hours before FSGS induction by adriamycin. After intravenous injection of adriamycin, osthole was continuously given to the osthole treated group through intraperitoneal injection with a daily dose of 30 mg/kg body weight until they were sacrificed 28 days after FSGS induction. The pathological control group were given vehicle by intraperitoneal injection in the same fashion. Urine samples were collected in metabolic cages on days 3, 7, 14, and 21. Mice were sacrificed at day 7 or 28 post disease induction. Renal cortical tissues, spleen and serum were collected and stored properly for further analysis. Mice urine samples were collected by metabolic cages. Proteinuria was first tested with test paper, following the measurement of protein concentration with BCA Protein Assay Kit (PIERCE), where the urinary protein index was illustrated by 24-hour proteinuria (urinary protein concentration/urinary creatinine concentration). In addition, blood was collected through the eye socket, after separation, serum specimen was obtained, which was absorbed into Fuji Ori-Chem Slide and measured by machine (Fuji Photo Film Co., Tokyo, Japan) to read the data.
# [3] = system: adriamycin induced FSGS mice; assay: Evaluation of renal fibrosis (collagen IV IHC, Sirius red staining) in mouse FSGS model; details: osthole 30 mg/kg daily intraperitoneal
# Method: as §1, with “analysis. In addition, immunohistochemistry was also performed.” for “analysis.”, “A quantitative image analysis software Pax-it; […], Villa Park, Ill., USA)” for “Renal pathology”, “used to analyze the staining results.” for “examined under optical microscope and renal lesions was scored. or EPHLs and sclerosis, at least 50 glomeruli in sections were examined for each mouse.”
# Nrf2 pathway = assay: Anti-oxidative signaling pathway in kidney tissues (Nrf2 Western blot, HO-1 ELISA, GPx activity) in mouse FSGS model; details: kidney tissue, osthole 30 mg/kg daily intraperitoneal, FIG. 6
# Method: (§2) Experiments were performed on 8-week-old female BALB/c mice. The mice were separated into 3 groups at 8-weeks old. One of the groups were injected intravenously with normal saline to be used as normal controls, where the pathological control group and the osthole treated group were intravenously injected with a single dose of adriamycin (0.1 mg/10 g body weight) to induce FSGS, wherein the osthole treated group is intraperitoneally injected with osthole at a daily dose of 30 mg/kg body weight starting from 6 hours before FSGS induction by adriamycin. After intravenous injection of adriamycin, osthole was continuously given to the osthole treated group through intraperitoneal injection with a daily dose of 30 mg/kg body weight until they were sacrificed 28 days after FSGS induction. The pathological control group were given vehicle by intraperitoneal injection in the same fashion. Urine samples were collected in metabolic cages on days 3, 7, 14, and 21. Mice were sacrificed at day 7 or 28 post disease induction. Renal cortical tissues, spleen and serum were collected and stored properly for further analysis.
# (§3) Cytoplasmic and nuclear proteins were extracted from renal tissues using a Nuclear Extract Kit (Active Motif, Tokyo, Japan) according to the manufacturer's instructions. Protein extract was separated by electrophoresis and blotted. Target proteins were detected by Western blot analysis using primary antibodies against mouse Nrf2 (Santa Cruz), COX-2 (Santa Cruz), caspase-3 (Cell Signaling Technology, MA, USA), or caspase-9 (Cell Signaling Technology, MA, USA). […] Lastly, secondary antibodies were added and their signals were detected by chemiluminescence.
# (§4) Serum PEG2 and renal HO-1 levels in mice were determined by enzyme linked immunosorbent assay according to the manufacturer's (R&D, U.S.A., Active Motif) instructions.
# GPx activity in renal tissues was measured using a commercial glutathione peroxidase assay kit (Cayman, Mich., USA) according to the manufacturer's instructions. […]
# [4] = system: adriamycin induced FSGS mice; assay: TUNEL measurement of apoptosis in kidney tissues in mouse FSGS model; details: osthole 30 mg/kg daily intraperitoneal; 28th day; FIG. 10
# Method: as §2, with “analysis. TUNEL (Terminal deoxynucleotidyl transferase dUTP nick end labeling) was used for the detection of apoptosis. Kidney sections were prepared by fixing with formalin and embedded in paraffin. […]” for “analysis.”
# COX-2 and PGE2 = assay: Renal COX-2 (Western blot) and serum PGE2 (ELISA) in mouse FSGS model; details: osthole 30 mg/kg daily intraperitoneal, 28th day
# Method: Experiments were performed on 8-week-old female BALB/c mice. The mice were separated into 3 groups at 8-weeks old. One of the groups were injected intravenously with normal saline to be used as normal controls, where the pathological control group and the osthole treated group were intravenously injected with a single dose of adriamycin (0.1 mg/10 g body weight) to induce FSGS, wherein the osthole treated group is intraperitoneally injected with osthole at a daily dose of 30 mg/kg body weight starting from 6 hours before FSGS induction by adriamycin. […]
# as §3, with “Protein extract was separated by electrophoresis and blotted.” left out
# as §4
# [5] = system: caspase-3, caspase-8 and caspase-9; assay: Western blot analysis of caspase-3, caspase-8 and caspase-9 in kidney tissues in mouse FSGS model; details: kidney tissue
# Method: as §2, with “analysis. Cytoplasmic and nuclear proteins were extracted from renal tissues using a Nuclear Extract Kit (Active Motif, Tokyo, Japan) according to the manufacturer's instructions. Protein extract was separated by electrophoresis and blotted. Target proteins were detected by Western blot analysis using primary antibodies against mouse Nrf2 (Santa Cruz), COX-2 (Santa Cruz), caspase-3 (Cell Signaling Technology, MA, USA), or caspase-9 (Cell Signaling Technology, MA, USA). Antibodies against histone H3 (Cell Signaling, CO, USA) or β-actin (Santa Cruz) were used as internal controls for the nuclear and cytosolic target proteins, respectively. Lastly, secondary antibodies were added and their signals were detected by chemiluminescence.” for “analysis.”
# [6] = system: adriamycin induced FSGS mice; assay: F4/80 immunostaining of monocyte/macrophage infiltration in kidney tissues in mouse FSGS model; details: osthole 30 mg/kg daily intraperitoneal; 28th day; FIG. 7
# Method: as §2, with “analysis. In addition, immunohistochemistry was also performed. […] A quantitative image analysis software Pax-it; […], Villa Park, Ill., USA) was used to analyze the staining results.” for “analysis.”
# [7] = osthole 30 mg/kg daily intraperitoneal, vs pathological control group, FIG. 11
smiles,measurement,setting,value
COc1ccc2ccc(=O)oc2c1CC=C(C)C [osthole],disease progression of glomerular sclerosis (histopathology),[1],significantly suppress the disease progression of glomerular sclerosis
same,superoxide anion (ROS) in serum,ROS (superoxide anion); FIG. 5A,suppressed exhibition of such phenomenon
same,superoxide anion (ROS) in kidney tissue,ROS (superoxide anion); FIG. 5B,suppressed exhibition of such phenomenon
same,NF-κB p65 nuclear translocation in kidney tissues,NF-κB p65,can be suppressed by osthole
same,urine protein concentration (urine protein/urine creatinine ratio),"[2]; 7th to 28th day, FIG. 1A",almost be completely suppressed
same,blood urea nitrogen (BUN),"[2]; 28th day, FIG. 1B","lower BUN and Cr concentration, similar to that of the normal control group"
same,serum creatinine (Cr),"[2]; 28th day, FIG. 1C","lower BUN and Cr concentration, similar to that of the normal control group"
same,fibrosis of the renal tissue (Sirius red staining),"[3]; 28th day, FIG. 4","suppress fibrosis of the renal tissue, similar to the normal control group"
same,collagen IV expression in glomerular tissue (IHC),[3]; FIG. 3,significantly suppress collagen IV expression in glomerular tissue
same,GPx activity,Nrf2 pathway,significantly increase HO-1 expression and GPx activity
same,HO-1 expression,Nrf2 pathway,significantly increase HO-1 expression and GPx activity
same,Nrf2 translocation into the nucleus,Nrf2 pathway; vs pathological control group,significantly increase the Nrf2 translocation
same,apoptosis in kidney tissues (TUNEL staining),[4],can be suppressed by administration of osthole
same,COX-2 expression level (renal),COX-2 and PGE2; FIG. 9A-B,restored to levels similar to the normal control group
same,PGE2 expression level (serum),COX-2 and PGE2; FIG. 9C,restored to levels similar to the normal control group
same,expression level of caspase-8,[5]; data not shown,did not show significant difference
same,caspase-3 in activated state (p17 fragment),[5]; [7],suppressed significantly
same,caspase-9 in activated state (p37 fragment),[5]; [7],suppressed significantly
same,monocyte/macrophage infiltration (F4/80) in kidney tissues,[6],significantly reduced infiltration
